Several values for one entry are separate records, joined by “and”; a condition that tells them apart may be missing. Equal entries are not always repeated. Structures can show the parent of a compound that is named as a salt. Where two headings read alike, the source gives them in different places.
What was measured:
[1] = system: S-180J cells (sarcoma 180J); assay: Sarcoma 180J model for assessment of tumor rejection; format: in vivo, female CD-1 mice; settings: for number of 40 day survivors: six mice per group
Method: Six female CD-1 mice (20-25 g) per group received 10^6 S-180J cells which were 5 to 8 days old by intraperitoneal administration. On the day following tumor innoculation the mice received 0.1 ml of the test compound formulated in the fat emulsion vehicle Intralipid (Cutter Laboratories) at the desired dose and were then observed until death or 40 days, whichever occurs first. Results are expressed as increased percent life span (%ILS), defined as follows: [formula] Results obtained by the above test procedure were as follows:
Results of the above test obtained with (1-hydroxy-2-alkylamino ethyl)-benzyloxy analogs of this invention formulated in Tween 80-glycerol-water are shown in Table 2.
(Numbers in parentheses in Tables 1 and 2 above are the number

[2] = in vivo; design: species or system mice and rats; settings: read-out: therapeutic index
From the text: The compounds may be used in pharmaceutical preparations containing the compound or a pharmaceutically acceptable salt thereof in combination with a pharmaceutically acceptable carrier or diluent. A particularly preferred type of pharmaceutical carrier for this purpose is a sterile fat or lipid emulsion vehicle. […] Such advantages have been reported for other compounds used with such fat emulsion vehicles, see for example Fortner, et al., American Journal of Hospital Pharmacy, 32, 502 (1975) and Jeppsson, et al., First International Conference on Pharmaceutical technology, Faculty of Pharmacy, Paris-Sud, June 1977. An example of a particularly suitable vehicle is Intralipid (Cutter Laboratories, Berkeley, California), a 10% fat emulsion, based on soybean oil. However, other similar vehicles would be suitable and may be readily prepared by those skilled in the art.

[3] = system: L 1210 cells / peritoneal macrophages; assay: Assessment of peritoneal macrophage activation (inhibition of DNA synthesis in L 1210 cells); format: in vivo, mice; settings: Mus musculus, L1210, ip, intraperitoneal, macrophages harvested 72 hours later
Method: (§1) Mice were injected intraperitoneally with saline or the test compound. Macrophages were harvested 72 hours later by intraperitoneal injection of 3 ml 8% fetal calf serum-- 92% RPMI 1640 medium (Grand Island Biological Co., N.Y.) (164092 FCS8) plus 5 units/ml of heparin, the temperature of all media being kept at 37° C., lavaged 1 to 2 minutes, opened and all peritoneal fluid drawn off with a sterile, siliconized pipet into a 50 ml plastic tube kept in ice. The macrophages were counted using a hemocytometer and adjusted to a concentration of 1.5×10^6 /ml with 164092 FCS8. The cells were then placed in multiwell plates, 1.5×10^6 cells per well, and incubated for 1 to 2 hours at 37° C. in a 5% carbon dioxide atmosphere. The supernate was discarded and the cells were washed once with media, the macrophages adhering to the bottom of the wells. L 1210 cells (harvested from ascites of DBA mice approximately 5 days after innoculation) in 164092 FCS8 were then added, 1 ml of 1×10^5 cells/ml to each well and incubated at 37° C. for 24 to 30 hours in a 5% carbon dioxide atmosphere. The cells were then pulsed with ^3 H-Tdr (1.0μCi/ml; Amersham/Searles) for 6 hours at 37° C., the supernate drawn off using a cell harvester: Reeve-Angel filter, and washed five times with saline. The filter discs were allowed to dry and placed in scintillation vials with LSC scintillation fluid (5.0 g PPO and 0.2 g POPOP/liter toluene; Yorktown Research). Counting was done for 2 minutes using a Beekman LS-250 β-counter.

[4] = system: L1210 cells / peripheral blood monocytes; assay: Assessment of peripheral blood monocyte activation (inhibition of DNA synthesis in L1210 cells); format: in vivo, rats; settings: Rattus norvegicus, intravenous, monocytes harvested 72 hours later, Effector:Target ratio 15:1
Method: as §1, with “The cells were then pulsed with ^3 H-Tdr (1.0μCi/ml; Amersham/Searles) for 6 hours at 37° C., the supernate drawn off using a cell harvester: Reeve-Angel filter, and washed five times with saline. The filter discs were allowed to dry and placed in scintillation vials with LSC scintillation fluid (5.0 g PPO and 0.2 g POPOP/liter toluene; Yorktown Research). Counting was done for 2 minutes using a Beekman LS-250 β-counter.” left out
Rats were injected intravenously with the test compound, or with saline for control animals. […] Following the procedure described in Example 13 the cells were pulsed with ^3 H-Tdr and counted with a scintillation counter.

[5] = system: Influenza virus; assay: Vaccine adjuvanticity - hemagglutination inhibition test; format: in vivo, Hartley female guinea pigs (vaccinated); influenza virus; settings: for Hemagglutination Titer: compound (5 mg) with Fluogen, individual animal
[6] = 5 mg/kg, Tween 80-glycerol-water
[7] = 15 mg/kg, Tween 80-glycerol-water
[8] = 50 mg/kg, Tween 80-glycerol-water
[9] = 0.25 mg/kg, fat emulsion vehicle Intralipid
[10] = 1 mg/kg, fat emulsion vehicle Intralipid
[11] = 4 mg/kg, fat emulsion vehicle Intralipid
[12] = 16 mg/kg, fat emulsion vehicle Intralipid

Compound | %ILS (increased percent life span) [1, 6] | number of 40 day survivors [1, 6] | %ILS (increased percent life span) [1, 7] | %ILS (increased percent life span) [1, 8] | number of 40 day survivors [1, 8] | %ILS (increased percent life span) [1, 9] | %ILS (increased percent life span) [1, 10] | %ILS (increased percent life span) [1, 11] | %ILS (increased percent life span) [1, 12] | other results
CCCCCCCCCCCCCCCCOCC(COCCCCCCCCCCCCCCCC)OCc1cccc(C(O)CNC(C)(C)C)c1 (stereo not drawn) [C(CH3)3 1,3] | 159% | 1 | 171% | 157% | 2 |  |  |  |  | number of 40 day survivors [1, 7]: 3
CCCCCCCCCCCCCCCCOCC(COCc1cccc(C(O)CNC(C)(C)C)c1)OCCCCCCCCCCCCCCCC.Cl (stereo not drawn) [C(CH3)3 2,3, 1,2-Di-O-(n-hexadecyl)-3-O-[3-(1-hydroxy-2-t-butylaminoethyl)benzyl]-glycerol hydrochloride] | 166% | 2 | 181% | 182% | 4 |  |  |  |  | number of 40 day survivors [1, 7]: 4
CCCCCCCCCCCCCCCCOCC(COCc1cccc(C(O)CNC(C)C)c1)OCCCCCCCCCCCCCCCC (stereo not drawn) [CH(CH3)2 2,3] | 174% | 1 | 135% | 147% | 1 |  |  |  |  | 
CCCCCCCCOCC(CN1CCC(CN)(c2ccccc2)CC1)OCCCCCCCC (stereo not drawn) [n-C8 H17] |  |  |  |  |  | 113% | 109% | 154% | 192% | number of 40 day survivors ([1]; 4 mg/kg, Intralipid): 1; number of 40 day survivors ([1]; 16 mg/kg, Intralipid): 4; selectivity ratio ([2]; Tween 80-glycerol-water formulations): ~3; selectivity ratio ([2]; sterile fat or lipid emulsion vehicle, parenteral and intravenous): 15 to 25
CCCCCCCCCCOCC(CN1CCC(CN)(c2ccccc2)CC1)OCCCCCCCCCC (stereo not drawn) [n-C10 H21, 4-Aminomethyl-1-[2,3-(di-n-decyloxy)-n-propyl]-4-phenylpiperidine] |  |  |  |  |  | 127% | 139% | 110% | 108% | number of 40 day survivors ([1]; 1 mg/kg, Intralipid): 1; inhibition at 0.313 mg/kg ([3]; 0.313 mg/kg): 56%; inhibition at 0.625 mg/kg ([3]; 0.625 mg/kg): 94%; inhibition at 1.25 mg/kg ([3]; 1.25 mg/kg): 76%; inhibition at 1.25 mg/kg [4]: 80%; Hemagglutination Titer ([5]; day 15 after primary sensitization): 10 and 0; Hemagglutination Titer ([5]; day 30 after primary sensitization (rechallenge day)): 10 and 40 and 20 and 0; Hemagglutination Titer ([5]; day 44 after primary sensitization, rechallenged at 30 days): 80 and 640 and 10 and 40; Hemagglutination Titer ([5]; day 65 after primary sensitization, rechallenged at 30 days): 1280 and 2560 and 160 and 20 and 10; hemagglutination titer observed after rechallenge (adjuvant activity) ([5]; compound with Fluogen, in words): higher hemagglutination titer observed after rechallenge
CCCCCCCCCCCCCCOCC(CN1CCC(CN)(c2ccccc2)CC1)OCCCCCCCCCCCCCC (stereo not drawn) [n-C14 H29] |  |  |  |  |  | 129% | 116% | 133% | 109% | number of 40 day survivors ([1]; 0.25 mg/kg, Intralipid): 1; inhibition at 25 mg/kg ([3]; 25 mg/kg): 90%
CCCCCCCCCCCCCCCCOCC(CN1CCC(CN)(c2ccccc2)CC1)OCCCCCCCCCCCCCCCC (stereo not drawn) [n-C16 H33, 4-Aminomethyl-1-[2,3-(di-n-hexadecyloxy)-n-propyl]-4-phenylpiperidine Dihydrochloride] |  |  |  |  |  | 110% | 105% | 104% | 127% | 
CCCCCCCCCCCCCCCCCCOCC(CN1CCC(CN)(c2ccccc2)CC1)OCCCCCCCCCCCCCCCCCC (stereo not drawn) [n-C18 H37] |  |  |  |  |  | 119% | 158% | 98% | 109% | number of 40 day survivors ([1]; 1 mg/kg, Intralipid): 2
